Test results as given in patent publication US20030114512A1, “Compounds with 5-ht2 and 5-ht1a agonist activity for treating glaucoma” (priority 2002, published 2003).
Where two headings read alike, the source gives them in different places.

Legend:
5-HT1A receptor = molecular target: T1, 5-HT1A receptor (UniProt P08908); assay: 5-HT1A functional assays (inhibition of forskolin-stimulated adenylate cyclase / cAMP); assay type: biochemical; conditions: for EC50: read-out: EC50, nM (SEM) 5-HT1A functional
T1 sequence (P08908 1-422): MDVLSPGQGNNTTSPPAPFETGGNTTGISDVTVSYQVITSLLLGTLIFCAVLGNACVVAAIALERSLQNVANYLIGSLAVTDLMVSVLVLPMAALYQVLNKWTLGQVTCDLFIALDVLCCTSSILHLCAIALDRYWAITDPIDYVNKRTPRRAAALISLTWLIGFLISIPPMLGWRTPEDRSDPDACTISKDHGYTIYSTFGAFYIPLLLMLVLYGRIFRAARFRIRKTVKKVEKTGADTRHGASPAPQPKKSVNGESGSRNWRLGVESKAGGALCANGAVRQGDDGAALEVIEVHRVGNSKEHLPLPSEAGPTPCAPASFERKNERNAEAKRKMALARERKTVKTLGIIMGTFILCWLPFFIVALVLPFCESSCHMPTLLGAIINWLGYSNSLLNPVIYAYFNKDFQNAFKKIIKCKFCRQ
Description: The function of Compounds of the present invention can be determined using a variety of methods to assess the functional activity of 5-HT1A agonists. One such assay is performed using hippocampal slices from male Sprague-Dawley rats, measuring the inhibition of forskolin-stimated adenylate cyclase [J. Med. Chem. 42. 36 (1999), J. Neurochem. 56, 1114 (1991), J. Pharm. Exper. Ther. 284:1082 (1998). Rat hippocampal membranes were homogenized in 25 volumes of 0.3 M sucrose containing 1 mM EGTA, 5 mM EDTA, 5 mM dithiothreitol, and 20 mM Tris-HCl, pH 7.4 at 25° C. The homogenate was centrifuged for 10 m in at 1,000×g. The supernatant subsequently was centrifuged at 39,000×g for 10 min. The resulting pellet was re-suspended in homogenization buffer at a protein concentration of approximately 1 mg/ml and aliquots were stored at −140° C. Prior to use, the membranes were rehomogenized in a Potter-Elvehjem homogenizer. Fifty μl of the membrane suspension (50 μg protein) were added to an incubation buffer containing 100 mM NaCl, 2 mM magnesium acetate, 0.2 mM ATP, 1 mM cAMP, 0.01 mM GTP, 0.01 mM forskolin, 80 mM Tris-HCl, 5 mM creatine phosphate, 0.8 U/μl creatine phosphokinase, 0.1 mM IBMX, 1-2 μCi α-[^32P]ATP. Incubations with test compounds (10 min at 30° C.) were initiated by the addition of the membrane solution to the incubation mixture (prewarmed 5 min at 30° C.). [^32P]cAMP was measured according to the method of Salomon (Adv. Cyclic Nucleotide Res. 10:35-55, 1979). Protein was measure using the Bradford (Anal. Biochem 72:248-254, 1976) assay.
Functional activity can also be determined in recombinant human receptors according to the method of Schoeffter et al., (Neuropharm. 36:429-437, 1997). HeLa cells transfected with recombinant human 5-HT1A receptors were grown to confluence in 24-well plates. The cells were rinsed with 1 ml of Hepes-buffered saline (in mM) NaCl 130, KCl 5.4, CaCl2, 1.8, MgSO4 0.8, NaH2PO4 0.9, glucose 25, Hepes 20, pH 7.4, and phenol red 5 mg/l. The cells were labelled with 6 μCi/ml of [^3H] adenine (23 Ci/mmol, Amersham, Rahn AG, Zurich, Switzerland) in 0.5 ml of saline at 37° C. for 2 hr. The plates were subsequently rinsed twice with 1 ml of buffered saline containing 1 mM isobutylmethylxanthine. The cells were incubated for 15 min in 1 ml of this solution (37° C.) in the presence or absence of 10 μM forskolin and the test compound. The buffer was then removed and 1 ml of 5% trichloroacetic acid (TCA) containing 0.1 mM cAMP and 0.1 mM ATP was added to extract the samples. After 30 min at 4° C., the TCA extracts were subjected to chromatographic separation on Dowex AG 50W-X4 and alumina columns (Salomon, Methods in Enzymology 195: 22-28, 1991). Cyclic AMP production was calculated as the ratio [^3H]cAMP/([^3H]cAMP+[^3H]ATP).

5-HT2 receptor = molecular target: T2, 5-HT2 receptor (Rattus norvegicus, UniProt P14842); assay: 5-HT2 functional assay: phosphoinositide (PI) turnover; assay type: cell-based; conditions: for Emax: A7r5 cells, relative to 5-HT set at 100%, read-out: Efficacy (Emax, %) 5-HT2 functional
T2 construct: A7r5 rat vascular smooth muscle cells; endogenous in cells; host or cells: A7r5 rat vascular smooth muscle cells
Description: 5-HT2 Functional Assay: Phosphoinositide (PI) Turnover Assay
The relative agonist activity of serotonergic compounds at the 5-HT2 receptor can be determined in vitro using the ability of the compounds to stimulate the production of [^3H]inositol phosphates in [^3H]myo-inositol-labeled A7r5 rat vascular smooth muscle cells by their ability to activate the enzyme phospholipase C. These cells are grown in culture plates, maintained in a humidified atmosphere of 5% CO2 and 95% air and fed semi-weekly with Dulbecco's modified Eagle medium (DMEM) containing 4.5 g/l glucose and supplemented with 2 mM glutamine, 10 μg/ml gentamicin, and 10% fetal bovine serum. For the purpose of conducting the phosphoinositide (PI) turnover experiments, the A7r5 cells are cultured in 24-well plates as previously [J. Pharmacol. Expt. Ther., 286, 411 (1998)]. Confluent cells are exposed for 24-30 hrs to 1.5 μCi [^3H]-myo-inositol (18.3 Ci/mmol) in 0.5 ml of serum-free medium. Cells are then rinsed once with DMEM/F-12 containing 10 mM LiCl prior to incubation with the test agent (or solvent as the control) in 1.0 ml of the same medium for 1 hr at 37° C., after which the medium is aspirated and 1 ml of cold 0.1 M formic acid added to stop the reaction. The chromatographic separation of [^3H]-inositol phosphates ([^3H]-IPs) on an AG-1-X8 column is performed as previously described [J. Pharmacol. Expt. Ther. 286, 411 (1998)] with sequential washes with H2O and 50 mM ammonium formate, followed by elution of the total [^3H]-IPs fraction with 1.2 M ammonium formate containing 0.1 M formic acid. The eluate (4 ml) is collected, mixed with 15 ml scintillation fluid, and the total [^3H]-IPs determined by scintillation counting on a beta counter. Concentration-response data are analyzed by the sigmoidal fit function of the Origin Scientific Graphics software (Microcal Software, Northampton, Mass.) to determine agonist potency (EC50 value) and efficacy (Emax). Serotonin (5-HT) is used as a positive control (standard) agonist compound and the efficacy of test compounds is compared to that of 5-HT (set at 100%). The concentration of the compound needed to stimulate the production of [^3H]-IPs by 50% of the maximum response is termed the EC50 value.

T2 sequence (P14842 whole entry): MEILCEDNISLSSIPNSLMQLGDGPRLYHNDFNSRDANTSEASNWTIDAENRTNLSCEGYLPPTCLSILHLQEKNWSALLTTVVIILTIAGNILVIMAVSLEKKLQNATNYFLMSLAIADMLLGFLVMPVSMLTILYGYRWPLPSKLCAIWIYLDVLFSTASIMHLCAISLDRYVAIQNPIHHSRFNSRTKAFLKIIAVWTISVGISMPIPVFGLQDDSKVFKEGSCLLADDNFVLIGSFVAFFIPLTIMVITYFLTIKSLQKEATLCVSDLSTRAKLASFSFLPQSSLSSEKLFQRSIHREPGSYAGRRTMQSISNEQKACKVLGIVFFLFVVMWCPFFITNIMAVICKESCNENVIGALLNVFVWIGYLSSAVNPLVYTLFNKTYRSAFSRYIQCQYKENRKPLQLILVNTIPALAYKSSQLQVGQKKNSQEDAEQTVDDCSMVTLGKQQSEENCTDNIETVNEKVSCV

Row | Structure (SMILES) | Efficacy (Emax, %) 5-HT1A functional (5-HT1A receptor) | EC50 (5-HT1A receptor) | Emax (5-HT2 receptor) | EC50 (5-HT2 receptor; [3H]inositol phosphates, A7r5 rat vascular smooth muscle cells, read-out: EC50, nM (SEM) 5-HT2 functional) | EC50 (5-HT2 receptor)
1 | CC(N)Cc1c[nH]c2ccc(O)cc12.O=C(O)/C=C\C(=O)O (stereo not drawn) [α-Methyl 5-hydroxytryptamine maleate, 3-(2-aminopropyl)-1H-indol-5-ol] | 100% | 378 nM | 104% |  | 
2 | CC(N)Cn1ccc2ccc(O)cc21.O=C(O)/C=C/C(=O)O (centres unmarked) [1-(2-aminopropyl) 6-hydroxyindole fumarate] | 89% | 780 nM | 86% | 577 nM | 
3 | COc1ccc2[nH]cc(CC(C)N)c2c1.O=C(O)/C=C/C(=O)O (stereo not drawn) [α-Methyl 5-methoxytryptamine fumarate] | 92% | 570 nM | 81% |  | 206 nM
